The subject of one data set is GL261 cells. Nature of the data set: Cell viability assay (Alamar Blue, 7 days), GL261. The format is cell-based. As to conditions: Mus musculus, GL261, 168 h; MGMT (−) MMR (+); 7 days; 1500 c/w; SEM, n=3; read-out: Activity, GL261. The method, then: (§1) Cell Culture and Reagents. All cell lines were grown in a 37° C., 5% CO2, humidified environment, in media containing 1% penicillin/streptomycin. Stable cell line generation of GL261 MGMT+ was purchased from Creative Biogene. Cell culture conditions are as follows: cell lines U87, T98G, and RKO were grown in EMEM with 10% FBS. D54, GL261, GL261 MGMT+, and U118MG cell lines were grown in DMEM with 10% FBS. HCT116 cells were grown in RMPI with 10% FBS. D341 Med cells were grown in EMEM with 20% FBS. Temozolomide (TMZ) was purchased from AK Scientific. TMZ analogues were synthesized as described below. Compounds were dissolved in DMSO (1% final concentration, Fisher Chemical) for cell culture studies.
(§2) Cell Viability Assays. Cells were harvested, seeded in a 96-well plate and allowed to adhere. After three hours, compound was added to each well in DMSO (1% final concentration). Cells were incubated for seven days (unless otherwise noted) before viability was assessed by the Alamar Blue assay. Raptinal (20 μM) was used as a dead control.
(§3) Plated 1500 c/w for GL261; 600 c/w for U87; 600 c/w for U118MG; 1500 c/w for GL261 MGMT+ Incubated ovn and added 1 μL of compound in DMSO the next day. Incubated over 7 days; added Alamar Blue to assess cell viability and used 10 μM Raptinal as dead control. Error is SEM, n=3.

A further data set deals with HCT116 cells. Description: Cell viability assay (Alamar Blue, 7 days), HCT116. The format is cell-based. The conditions noted are these: Homo sapiens, HCT-116, 168 h; MGMT (−) MMR (−); 7 days; read-out: Activity, HCT116. The method, then:
as §1, §2
(In general: Alamar Blue is a resazurin reagent that responds to reducing activity.)

Data set [1] is described as follows: Syngeneic subcutaneous model. As to conditions: C57BL/6 mice, 1×10^6 cells; 50 mg/kg IV 1×/day over 5 days from day 5. Format: in vivo. On the procedure: FIG. 10A-B. Syngeneic Subcutaneous Model (A, B). TABZ and TMZ in vivo: C57BL/6 mice were inoculated with 1×10^6 cells and treated xl/day over 5 days with either vehicle, TMZ, or TABZ (via IV, 50 mg/kg, starting on day 5).

In the next data set the test system is U87 GBM cell line. Description: Cell viability assay (Alamar Blue, 7 days), U87. The format is cell-based, human. The conditions noted are these: Homo sapiens, 168 h, MGMT (−) MMR (+), 600 c/w, SEM, n=3, read-out: Activity, U87. The method, then:
as §1, §2, §3

A further data set in a line: Brain tissue binding. The conditions noted are these: 10 uM, 1 h at 37 C in brain tissue homogenate. Format: in vitro ADME.
Data set [2] concerns S. typhimurium TA100 strain. Nature of the data set: Ames test, TA100. Format: cell-based. As to conditions: 30 μM. On the procedure: (§4) Next, we measured the mutagenicity of CPZ versus TMZ. TMZ and other DNA methylating chemotherapies are known mutagens, inducing G:C→A:T mutations due to erroneous recognition of O^6-methylguanine. […] CPZ and TMZ (at 30 μM) were also assessed in the E. coli WP2 uvrA pKM101 strain, which is considered one of the more sensitive Ames tester strains available.
Ames Test. Compounds were assessed at the indicated concentrations in the TA100 tester strain using the Muta-ChromoPlate 96-well microplate version of the Ames test (Environmental Bio-Detection Products, Prod. No. 5051) according to manufacturer's instructions. In brief, TA100 S. typhimurium bacteria were grown overnight and plated with compound, growth medium, and indicator (no S9 activation) in 96 well plates. Bacteria were incubated for 5 days before the number of wells per 96 well plate containing revertant colonies were identified colorimetrically.
Background: The Ames test uses bacterial strains that need an amino acid and regain growth without it when mutated back.

Data set [3] relates to RKO colon cancer cell line. Nature of the data set: Cell viability assay (Alamar Blue, 7 days), RKO. The conditions noted are these: 168 h; 7 days; read-out: Activity, RKO. Format: cell-based. The method, then:
as §1, §2

Data set [4] has as its system E. coli WP2 uvrA pKM101 strain. Description: Ames test, E. coli WP2 uvrA pKM101. The format is cell-based. As to conditions: 30 μM. On the procedure: as §4
The nature of data set [5]: Hydrolytic stability studies. As to conditions: PBS, pH 7.4, 37° C.; HPLC. Format: physicochemical. The method, then:
Hydrolytic Stability Studies. Compound (100 μM) was incubated at 37° C. in PBS at pH 7.4 (unless otherwise noted). At the indicated time point, an aliquot was collected and analyzed by HPLC. Compound peaks were integrated and compared to the integration at to calculate the percentage of prodrug remaining.

The subject of a further data set is cancer cells. Description: Rapid cancer cell death phenotype. Format: cell-based. The conditions noted are these: relative to TMZ. From the text: FIG. 8A-C. Rapid Cancer Cell Death Phenotype.
A further data set deals with U118MG cells. Description: Cell viability assay (Alamar Blue, 7 days), U118MG. The format is cell-based. As to conditions: Homo sapiens, U-118-MG, 168 h, MGMT (+) MMR (+), 600 c/w, SEM, n=3. On the procedure: as §1, §2, §3
Data set [6] in a line: Maximum tolerated dose / tolerability in mice. The conditions noted are these: for MTD at 5 days: in vivo, 66 mg/kg, once per day over 5 days. Format: in vivo.
A short description of data set [7]: Solubility in IV formulations. Format: physicochemical. As to conditions: IV formulation.
For the next data set, the system named is GL261 MGMT+ cells. Nature of the data set: Cell viability assay (Alamar Blue, 7 days), GL261 MGMT+. The format is cell-based. As to conditions: Mus musculus, GL261, 168 h; MGMT (+) MMR (+); 7 days; 1500 c/w; SEM, n=3; read-out: Activity, GL261 MGMT+. On the procedure: To further explore the ability of CPZ to evade MGMT-mediated resistance, MGMT-expressing T98G cells were pretreated with MGMT inhibitor O6BG followed by treatment with TMZ or CPZ. […] This cell death potentiation by TMZ upon treatment with an MGMT inhibitor was also observed in MGMT-expressing cell lines U118MG and RKO, whereas the efficacy of CPZ was again unaffected. For MGMT (−)/MMR (−) HCT116 cells, negligible potentiation of TMZ cytotoxicity was observed upon pretreatment with O6BG, confirming that loss of MMR capacity, not MGMT expression, was responsible for resistance to TMZ in HCT116 cells. Additionally, human MGMT was knocked into the MGMT-negative mouse glioma cell line, GL261, establishing the novel cell line GL261 MGMT+.
as §1, §2, §3

Data set [8] in a line: Hepatic metabolism: stability in mouse liver microsomes. The format is in vitro ADME. On the technique in general: Microsomes from liver hold many membrane-bound enzymes, among them those of drug oxidation.
The mark [9] stands for this setting: 6.6 mg/mL solution for 200 μL injection.

Each structure is given as a SMILES string. Read-outs that look alike come from different tables or passages of the source.

`CC#CCn1nnc2c(C(=O)N(C)C)ncn2c1=O` [TABZ, 3-(but-2-yn-1-yl)-N,N-dimethyl-4-oxo-3,4-dihydroimidazo[5,1-d][1,2,3,5]tetrazine-8-carboxamide]: the IC50 worked out at 35 ± 2 µM in the data set on GL261 cells; 6 ± 0.42 µM in the data set on HCT116 cells; 16 ± 2 µM in the data set with U87 GBM cell line; 9 ± 1 µM in data set [3]; 24 ± 5 µM in the data set with U118MG cells; 18 ± 1 µM in the data set on GL261 MGMT+ cells. For the same compound, the Tumor growth result in data set [1] is “no exacerbation”. Further, the “Brain tissue binding, insoluble fraction, tissue homogenizer” value in the data set “Brain tissue binding” stood at 40 ± 4%. The “Brain tissue binding, insoluble fraction, ultrasonication” value in the data set “Brain tissue binding” worked out at 39 ± 4%. Besides, in the data set “Brain tissue binding”, the “Brain tissue binding, soluble fraction, tissue homogenizer” value was 64 ± 4%. Moreover, the “Brain tissue binding, soluble fraction, ultrasonication” value in the data set “Brain tissue binding” was 61 ± 4%. For the same compound, the “Mutagenicity, TA100” value in data set [2] is “non-mutagenic”. For the same compound, the “Mutagenicity, E. coli WP2 uvrA pKM101” value in data set [4] is on record as “non-mutagenic”. Also, the “Hydrolytic stability: percentage of prodrug remaining after 2 hours” value in data set [5] stood at 31±1%. Also, the “Speed of cell death induction” value in the data set on cancer cells is on record as “induce cell death quickly relative to TMZ”. In addition, the “Tolerated dose, 1×/day via IV injection” value in data set [6] is recorded as 50 mg/kg. In addition, the MTD at 5 days was determined as 66 mg/kg in [6] (female, C57BL/6, mouse, ip, intraperitoneal, read-out: MTD, I.P.) and 66 mg/kg in data set [6] (mouse, intravenous, read-out: MTD, I.V.). Also, the “Solubility in 20/80 DMSO/PBS” value in data set [7] (5 mg/mL solution for 100 μL injection) was “Soluble*”. Also, in data set [7] (setting [9]), the “Solubility in 15/7/5/73 DMSO/NMP/T20/20% SPE-βCD” value was “Soluble >25 min”. In data set [7] (setting [9]), the “Solubility in 15/10/75 DMSO/NMP/20% SPE-βCD” value was “Soluble 20 min”. For the same compound, the “Stability (2 h, with MLM)” value in data set [8] (percentage remaining relative to t0, mouse liver microsomes, SEM, n ≥ 2) is 77 ± 2%. In [8] (percentage remaining, microsomes replaced with PBS), the “Stability (2 h, no MLM)” value turned out to be 87 ± 2%.

Broadly, the MTD is the largest dose that counted as tolerated.

These data come from patent US20250129083A1, “IMIDAZOTETRAZINE COMPOUNDS AND TREATMENT OF TMZ-RESISTANT CANCERS” (THE BOARD OF TRUSTEES OF THE UNIVERSITY OF ILLINOIS, priority 2022, published 2025).
